Data reported in patent publication US9675556B2, “Biodegradable stealth polymeric particles fabricated using the macromonomer approach by free radical dispersion polymerization” (Howard University, priority 2010, dated 2017).

How the values were obtained:
Experiment in all cases: CellTiter-Glo luminescent cell viability assay (in vitro cytotoxicity)
Type in all cases: cell-based
Conditions in all cases: […] to 120 nM paclitaxel, 48, 72 and 96 hours
MCF-7 cells = system: MCF-7 cells
Procedure: (§1) The concentrations tested range from 2.5 nM to 120 nM. The experiment was carried out as follows: Cultured cells (MCF-7, SK-OV 3, and MDA-MB-231) were seeded in 96-well plates at a seeding density of 6000 cells/well/0.1 mL medium and allowed to attach for 24 hours. […] To allow direct comparison, the amount of paclitaxel-loaded nanoparticles containing the same amount of paclitaxel as the paclitaxel in solution was used. Control cells were treated with medium only, medium with 0.05% DMSO, and medium containing blank nanoparticles at the highest concentration tested.
(§2) Cell viability was assessed at 48-, 72- and 96-hours post treatment respectively. Briefly, at the predetermined time intervals the treatment was washed off and fresh medium added. An amount of the CellTiter®-Glo reagent equal to the amount of medium was added. The plate was mixed by shaking on an orbital shaker for 2 minutes to induce cell lysis and luminescence was measured after 10 minutes using the FLUOstar OPTIMA plate reader (BMG LABTECH). In this assay, the number of viable cells in culture is determined by quantification of the ATP present which is an index of the presence of metabolically active cells (CellTiter®-Glo Luminescent Cell Viability Assay Technical Bulletin, TB 288; Promega). Results are presented as percent viability normalized to controls and represent the mean±S.D. of 4 replicates per concentration tested, as shown in FIG. 9. The results were analyzed by using Student's t-test using the SPSS® statistical software. Differences were considered significant at p<0.05.

MDA-MB-231 cells = system: MDA-MB-231 cells
Procedure: as §1, §2

SK-OV-3 cells = system: SK-OV-3 cells
Procedure: as §1, §2

Measured: cell growth inhibition (cell viability)

CC(=O)O[C@H]1C(=O)[C@@]2(C)[C@H]([C@H](OC(=O)c3ccccc3)[C@]3(O)C[C@H](OC(=O)[C@H](O)[C@@H](NC(=O)c4ccccc4)c4ccccc4)C(C)=C1C3(C)C)[C@]1(OC(C)=O)CO[C@@H]1C[C@@H]2O [paclitaxel solution, paclitaxel]
inhibited cell growth: all assays above
